Laboratory results reported in patent US12653802B2, “Method for treating lung cancer” (priority 2020, dated 2026).

How the values were obtained:
H1650 cells = assay: Growth inhibition of EGFR gene mutant NSCLC cells, cell survival stained with crystal violet, IC50 (FIG. 1A); format: cell-based; conditions: treated for 3 days, versus parent compound curcumin
Protocol: The EGFR gene mutant NSCLC cells were treated with the diarylheptanoid compounds of the present disclosure, and then the cell survival was stained with crystal violet to measure the IC50 values of the diarylheptanoid compounds of the present disclosure in the EGFR gene mutant NSCLC cells, so as to determine the growth inhibitory effect of the diarylheptanoid compounds of the present disclosure on the EGFR gene mutant NSCLC cells.
EGFR gene mutations in lung cancer are mostly found in exons 18-21, which are the intracellular tyrosine kinase coding region. The most common mutations include E746-A750del in exon 19 and L858R point mutation in exon 21, which account for about 85%-90% of EGFR gene mutations. Tumor cells with these two mutations are sensitive to the EGFR-TKIs, known as activating mutations. Secondary mutations may occur in some tumor cells, and the most common secondary mutation is the T790M mutation in exon 20, which is a drug resistance mutation. […] The H1650 cells have the E746-A750del mutation in exon 19 of the EGFR gene, wherein the CCM represents curcumin and the BDMC represents bisdemethoxycurcumin.

H1975 cells = assay: Cell survival assay in EGFR-TKIs resistant NSCLC cells, IC50 (FIG. 1B); format: cell-based; conditions: treated for 3 days, versus curcumin
Protocol: (§1) Experimentally, another 7 EGFR-TKIs resistant NSCLC cells were treated with Compound 21a, Compound 35a, Compound 35d, Compound 36 or Compound 37, and then the cell survival assay was performed to measure the IC50 values of the diarylheptanoid compounds of the present disclosure in the EGFR-TKIs resistant NSCLC cells, so as to determine the growth inhibitory effect of the diarylheptanoid compounds of the present disclosure on the EGFR-TKIs resistant NSCLC cells.
(§2) Please refer to FIG. 1B, FIG. 1C and FIG. 1D.

GR10 cells = assay: Cell survival assay in gefitinib-resistant NSCLC cells, IC50 (FIG. 1C); format: cell-based; conditions: treated for 3 days, versus curcumin
Protocol: as §1, §2

GR2 cells = assay: as above; format: cell-based; conditions: treated for 3 days, versus curcumin
Protocol: as §1, §2

GR5 cells = assay: as above; format: cell-based; conditions: treated for 3 days, versus curcumin
Protocol: as §1, §2

GR6 cells = assay: as above; format: cell-based; conditions: treated for 3 days, versus curcumin
Protocol: as §1, §2

GR8 cells = assay: as above; format: cell-based; conditions: treated for 3 days, versus curcumin
Protocol: as §1, §2

GR9 cells = assay: as above; format: cell-based; conditions: treated for 3 days, versus curcumin
Protocol: as §1, §2

[1] = Body weight changes in the tumor mice treated with Compound 35d alone (FIG. 2D); format: in vivo; conditions: 100 mg/kg daily, treated for more than 1 month
Protocol: In order to verify the anticancer effect of the diarylheptanoid compound of the present disclosure in vivo, the GR6 tumor mouse model, the GR8 tumor mouse model and the HCC827 tumor mouse model of xenotransplantation were first established, and the GR6 tumor mice, the GR8 tumor mice, and the HCC827 tumor mice were treated with 100 mg/kg of Compound 35d daily for 35 days, and the tumor size and body weight of the GR6 tumor mice, the GR8 tumor mice, and the HCC827 tumor mice were recorded.

[2] = Body weight changes in GR6 tumor mice, single and combined treatment (FIG. 3B); format: in vivo; conditions: Compound 35d 100 mg/kg per day alone or with osimertinib 1 mg/kg per day
Protocol: (§3) EGFR-TKIs are currently the standard treatment for NSCLC patients with the EGFR gene mutation. To further test whether the combined use of the diarylheptanoid compound of the present disclosure and known drug can enhance the therapeutic effect of NSCLC, the GR6 tumor mice were divided into 4 groups. One group received 100 mg/kg Compound 35d treatment per day (represented as 35d), another group received 1 mg/kg osimertinib treatment per day (represented as Osi), still another group received the combined treatment of 100 mg/kg Compound 35d and 1 mg/kg osimertinib per day (represented as 35d+Osi), and the other group was the control group without drug treatment.

GR6 tumor = assay: Tumor re-progression in GR6 tumor mice, single and combined treatment with osimertinib (FIG. 3A); format: in vivo; conditions: Compound 35d 100 mg/kg per day, osimertinib 1 mg/kg per day, alone or combined
Protocol: as §3

Row | SMILES | inhibitory activity on the growth of the H1650 cells (IC50) compared with curcumin (H1650 cells) | inhibitory activity on the growth of the H1975 cells (IC50) compared with curcumin (H1975 cells) | inhibitory activity on the growth of the GR10 cells (IC50) compared with curcumin (GR10 cells) | inhibitory activity on the growth of the GR2 cells (IC50) compared with curcumin (GR2 cells) | inhibitory activity on the growth of the GR5 cells (IC50) compared with curcumin (GR5 cells) | inhibitory activity on the growth of the GR6 cells (IC50) compared with curcumin (GR6 cells) | inhibitory activity on the growth of the GR8 cells (IC50) compared with curcumin (GR8 cells) | inhibitory activity on the growth of the GR9 cells (IC50) compared with curcumin (GR9 cells) | body weight of the tumor mice [1] | body weight of the GR6 tumor mice [2] | tumor size / tumor re-progression in the GR6 tumor mice (GR6 tumor)
1 | COc1cc(/C=C/C(=O)/C=C(O)/C=C/c2ccc(OC(=O)C(C)(CO)CO)c(OC)c2)ccc1OC(=O)C(C)(CO)CO [Compound 21a, ((1E,3Z,6E)-3-hydroxy-5-oxohepta-1,3,6-triene-1,7-diyl)bis(2-methoxy-4,1-phenylene)bis(3-hydroxy-2-hydroxymethyl)-2-methylpropanoate] | significantly better inhibitory activity than the parent compound—curcumin | significantly better inhibitory activity than curcumin | significantly better inhibitory activity than curcumin | significantly better inhibitory activity than curcumin | significantly better inhibitory activity than curcumin | significantly better inhibitory activity than curcumin | significantly better inhibitory activity than curcumin | significantly better inhibitory activity than curcumin |  |  | 
2 | COc1cc(/C=C/C(=O)C(C)(C)C(=O)/C=C/c2ccc(OC(=O)C(C)(CO)CO)c(OC)c2)ccc1OC(=O)C(C)(CO)CO [Compound 35a, ((1E,6E)-4,4-dimethyl-3,5-dioxohepta-1,6-diene-1,7-diyl)bis(2-methoxy-4,1-phenylene)bis(3-hydroxy-2-hydroxymethyl)-2-methylpropanoate] | significantly better inhibitory activity than the parent compound—curcumin | significantly better inhibitory activity than curcumin | significantly better inhibitory activity than curcumin | significantly better inhibitory activity than curcumin | significantly better inhibitory activity than curcumin | significantly better inhibitory activity than curcumin | significantly better inhibitory activity than curcumin | significantly better inhibitory activity than curcumin |  |  | 
3 | C#CCC(CC#C)(C(=O)/C=C/c1ccc(OC(=O)C(C)(CO)CO)c(OC)c1)C(=O)/C=C/c1ccc(OC(=O)C(C)(CO)CO)c(OC)c1 [Compound 35d, ((1E,6E)-3,5-dioxo-4,4-di(prop-2-yn-1-yl)hepta-1,6-diene-1,7-diyl)bis(2-methoxy-4,1-phenylene)bis(3-hydroxy-2-(hydroxymethyl)-2-methylpropanoate)] |  |  |  |  |  |  |  |  | did not decrease significantly | neither the single treatment of Compound 35d nor the combined treatment of Compound 35d and osimertinib can significantly reduce the body weight | 
4 | C=CC(=O)Nc1cc(Nc2nccc(-c3cn(C)c4ccccc34)n2)c(OC)cc1N(C)CCN(C)C [osimertinib] |  |  |  |  |  |  |  |  |  |  | initially reduced by osimertinib treatment, the treated tumors subsequently re-growth
